The record followed here is US20160046618A1, “Cyclopropyl Fused Thiazin-2-Amine Compounds as Beta-Secretase Inhibitors and Methods of Use” (AMGEN INC., priority 2014, published 2016).

One assay deals with human recombinant BACE1 (Homo sapiens (Human), UniProt P56817). The assay is described as follows: In vitro enzymatic BACE1 FRET assay. The assay is classed as biochemical. To be noted: read-out: IC50 IP (μM) BACE1 enzyme. The procedure:
(§1) These recombinant proteins were further purified using Ni-NTA affinity chromatography (Qiagen). […] This assay is effectively started by the addition of FRET substrate (50 nM) and the combination is incubated for one hour. The FRET assay is terminated by addition of Tris buffer, which raises the pH to neutrality, and the fluorescence is determined. The FRET substrate is a peptide with commercially available fluorophore and quencher, on opposite sides of the BACE cleavage site. Proteolytic cleavage of the FRET substrate releases quenching of fluorescence (excitation 488 nm and emission 590 nm).

In the next assay the target is human recombinant BACE2 (Homo sapiens (Human), UniProt Q9Y5Z0). Kind of assay: In vitro enzymatic BACE2 FRET assay. The assay is classed as biochemical. The following applies: read-out: IC50 IP (μM) BACE2 enzyme. The procedure:
as §1

For assay [1], the system named is Aβ40 in conditioned medium of cells stably expressing Amyloid Precursor Protein (APP). Kind of assay: In vitro BACE-1 cell-based assay (Aβ40 sandwich ELISA). The following applies: read-out: IC50 IP (μM) BACE1 cell. The procedure: In Vitro BACE-1 Cell-Based Assay
The cell-based assay measures inhibition or reduction of Aβ40 in conditioned medium of test compound treated cells expressing amyloid precursor protein. Cells stably expressing Amyloid Precursor Protein (APP) were plated at a density of 40K cells/well in 96 well plates (Costar). The cells were cultivated for 24 hours at 37° C. and 5% CO2 in DMEM supplemented with 10% FBS. The test compounds were then added to cells in 10-point dose response concentrations with the starting concentration being either 100 μM or 10 μM. The compounds were diluted from stock solutions in DMSO and the final DMSO concentration of the test compounds on cells was 0.1%. After 24 h of incubation with the test compounds the supernatant conditioned media was collected and the Aβ40 levels were determined using a sandwich ELISA. The IC50 of the compound was calculated from the percent of control or percent inhibition of Aβ40 as a function of the concentration of the test compound.
The sandwich ELISA to detect Aβ40 was performed in 96 well microtiter plates, which were pre-treated with goat anti-rabbit IgG (Pierce). The capture and detecting antibody pair that were used to detect Aβ40 from cell supernatants were affinity purified pAb40 (Biosource) and biotinylated 6E10 (Signet Labs Inc.), respectively. The optimal concentration for the pAb40 antibody was 3 μg/ml in Superblock/TBS (Pierce) that was supplemented with 0.05% Tween 20 (Sigma). […] Cellular supernatants were incubated with the capture antibody for 3 h at 4° C., followed by 3 wash steps in TBS-tween (0.05%). The detecting antibody incubation was for 2 h at 4° C., again followed by the wash steps as described previously. The final readout of the ELISA is Time-Resolved Fluorescence (counts per minute) using Delfia reagents Streptavidin-Europium and Enhancement solutions (Perkin Elmer) and the Victor 2 multilabel counter (Perkin Elmer).

The next assay deals with Recombinant Cat D (Homo sapiens (Human), UniProt P07339). The assay is described as follows: In vitro enzymatic Cathepsin D (Cat D) FRET assay. Format: biochemical. The following applies: read-out: IC50 IP (μM) CatD. The procedure:
In Vitro Enzymatic Cathepsin D (Cat D) FRET (Fluorescence Resonance Energy Transfer) Assay
Recombinant Cat D was expressed in CHO cells. The assay buffer for CathepsinD is 0.05 M citrate pH 3.5, 10% DMSO final, 5 mM CHAPS. […] The assays are effectively started by the addition of different FRET substrates (20 nM for Cat D) and the combination is incubated for one hour. The FRET assay is terminated with by addition of Tris buffer, which raises the pH to neutrality, and the fluorescence is determined. The FRET substrate is a peptide with commercially available fluorophore and quencher, on opposite sides of the BACE cleavage site. The Cat D substrate peptide sequence is based on sequence #1 of Table 1 from Gulnik et al. FEBS Letters v413 p 379-384 1997. Proteolytic cleavage of the FRET substrate releases quenching of fluorescence (Cat D excitation 500 nm and emission 580 nm).

Structures are written as SMILES. Read-outs that look alike come from different tables or passages of the source. Where only a bound is given, the exact number is not on record here.

human recombinant BACE1, sequence (P56817 46-501): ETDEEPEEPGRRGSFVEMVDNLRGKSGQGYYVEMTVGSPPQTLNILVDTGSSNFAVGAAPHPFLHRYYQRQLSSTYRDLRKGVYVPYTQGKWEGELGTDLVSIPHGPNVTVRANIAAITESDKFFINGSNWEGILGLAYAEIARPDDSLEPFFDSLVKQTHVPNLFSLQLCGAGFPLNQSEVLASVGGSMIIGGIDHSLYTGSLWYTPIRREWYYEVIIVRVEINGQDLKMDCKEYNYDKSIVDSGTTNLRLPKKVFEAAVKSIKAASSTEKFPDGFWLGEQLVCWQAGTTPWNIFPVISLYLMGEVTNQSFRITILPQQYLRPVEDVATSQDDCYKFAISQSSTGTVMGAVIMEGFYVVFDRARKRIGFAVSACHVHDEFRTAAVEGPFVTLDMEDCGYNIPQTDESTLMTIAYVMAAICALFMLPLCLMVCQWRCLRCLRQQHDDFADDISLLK
human recombinant BACE2, sequence (Q9Y5Z0 63-518): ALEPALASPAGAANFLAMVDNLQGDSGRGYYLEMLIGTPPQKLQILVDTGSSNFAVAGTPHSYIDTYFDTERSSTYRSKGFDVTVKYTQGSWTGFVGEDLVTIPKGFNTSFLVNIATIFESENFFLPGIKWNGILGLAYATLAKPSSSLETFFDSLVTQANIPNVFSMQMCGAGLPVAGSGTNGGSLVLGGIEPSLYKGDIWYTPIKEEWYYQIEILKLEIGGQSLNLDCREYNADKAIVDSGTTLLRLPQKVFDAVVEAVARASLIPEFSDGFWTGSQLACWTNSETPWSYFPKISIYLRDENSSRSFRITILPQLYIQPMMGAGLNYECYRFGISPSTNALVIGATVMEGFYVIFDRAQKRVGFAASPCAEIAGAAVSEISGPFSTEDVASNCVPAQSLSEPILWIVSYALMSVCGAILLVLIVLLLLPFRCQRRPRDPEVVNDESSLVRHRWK
Recombinant Cat D, sequence (P07339 65-412): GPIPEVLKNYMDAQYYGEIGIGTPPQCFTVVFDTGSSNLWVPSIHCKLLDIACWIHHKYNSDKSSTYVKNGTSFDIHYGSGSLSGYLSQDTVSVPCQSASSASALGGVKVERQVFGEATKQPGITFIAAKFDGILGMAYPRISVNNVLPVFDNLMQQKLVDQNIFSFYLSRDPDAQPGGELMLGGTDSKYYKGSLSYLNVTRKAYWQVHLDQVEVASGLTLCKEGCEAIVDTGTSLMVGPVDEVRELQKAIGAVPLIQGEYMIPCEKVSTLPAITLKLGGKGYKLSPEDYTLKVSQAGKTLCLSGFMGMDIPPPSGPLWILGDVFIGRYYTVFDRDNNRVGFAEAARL

In the case of `NC1=N[C@](CF)(c2cc(NC(=O)c3ccc(Cl)cn3)ccc2F)[C@@H]2[C@H]3CSC[C@]32S1` (mixture of isomers) [Example 752, N-(3-((4S,4aR,7aS)-2-amino-4-(fluoromethyl)-4a,4b,5,7-tetrahydro-4H-thieno[3′,4′:2,3]cyclopropa[1,2-e][1,3]thiazin-4-yl)-4-fluorophenyl)-5-chloropicolinamide and N-(3-((4S,4aS,7aR)-2-amino-4-(fluoromethyl)-4a,4b,5,7-tetrahydro-4H-thieno[3′,4′:2,3]cyclopropa[1,2-e][1,3]thiazin-4-yl)-4-fluorophenyl)-5-chloropicolinamide], the IC50 at human recombinant BACE1 came out at 0.0068 µM; at human recombinant BACE2 it was 0.00709 µM; in assay [1], 0.0522 µM; on Recombinant Cat D, 26.4 µM.
Consider `COC[C@]12C[C@H]1[C@@](C)(c1cc(NC(=O)c3cnc(OC(C)C(F)(F)F)cn3)ccc1F)N=C(N)S2` (mixture of isomers) [Example 968, N-(3-((1S,5S,6S)-3-amino-1-(methoxymethyl)-5-methyl-2-thia-4-azabicyclo[4.1.0]hept-3-en-5-yl)-4-fluorophenyl)-5-((1,1,1-trifluoropropan-2-yl)oxy)pyrazine-2-carboxamide], for which the IC50 is 0.129 µM on human recombinant BACE1, 1.1 µM on human recombinant BACE2, 0.12 µM in assay [1] and greater than 400 µM at Recombinant Cat D.
For `C=C[C@@H](C)Oc1cnc(C(=O)Nc2ccc(F)c([C@@]3(C)N=C(N)S[C@@]4(COC)C[C@H]43)c2)cn1` (mixture of isomers) [Example 1051, N-(3-((1S,5S,6S)-3-amino-1-(methoxymethyl)-5-methyl-2-thia-4-azabicyclo[4.1.0]hept-3-en-5-yl)-4-fluorophenyl)-5-(((1R)-1-methyl-2-propen-1-yl)oxy)-2-pyrazinecarboxamide, N-(3-((1S,5S,6S)-3-amino-1-(methoxymethyl)-5-methyl-2-thia-4-azabicyclo[4.1.0]hept-3-en-5-yl)-4-fluorophenyl)-5-(((1S)-1-methyl-2-propen-1-yl)oxy)-2-pyrazinecarboxamide], in that order: 0.033 µM, 0.345 µM, 0.035 µM and greater than 400 µM.
For the compound `COC[C@]12C[C@H]1[C@@](C)(c1cc(NC(=O)c3cnc(O[C@@H](C)C(F)(F)F)cn3)ccc1F)N=C(N)S2` (single isomer, unassigned) [Example 995], the IC50 is 0.101 µM at human recombinant BACE1, 1.77 µM at human recombinant BACE2, 0.164 µM in assay [1] and 1940 µM at Recombinant Cat D.
In the case of `COC[C@]12C[C@H]1[C@@](C)(c1cc(NC(=O)c3cnc(O[C@H](C)C(F)(F)F)cn3)ccc1F)N=C(N)S2` (single isomer, unassigned) [Example 996], the half-maximal inhibitory concentration (IC50) at human recombinant BACE1 worked out at 0.123 µM; on human recombinant BACE2 it was 0.807 µM; in assay [1] it was 0.12 µM; at Recombinant Cat D, 1640 µM.
For the compound `NC1=N[C@](CF)(c2cc(Nc3nncc4cc(Br)cnc34)ccc2F)C2C[C@@H]2S1` (stereo in doubt) [Example 67, N-(3-((1S,5S,6S)-3-amino-5-(fluoromethyl)-2-thia-4-azabicyclo[4.1.0]hept-3-en-5-yl)-4-fluorophenyl)-3-bromopyrido[2,3-d]pyridazin-8-amine], the IC50 turned out to be 0.0137 µM at human recombinant BACE1 (BACE1 FRET enzyme assay), 0.00616 µM on human recombinant BACE2 (BACE2 FRET enzyme assay), 0.0208 µM in assay [1] (BACE1 cell-based assay) and 738 µM at Recombinant Cat D (Cathepsin D FRET enzyme assay).
Consider `NC1=N[C@](CF)(c2cc(Nc3nccc4nc(C(F)(F)F)cnc34)ccc2F)C2C[C@@H]2S1` (stereo in doubt) [Example 87, N-(3-((1S,5S,6S)-3-amino-5-(fluoromethyl)-2-thia-4-azabicyclo[4.1.0]hept-3-en-5-yl)-4-fluorophenyl)-2-(trifluoromethyl)pyrido[3,4-b]pyrazin-5-amine], for which the IC50 was determined as 0.114 µM on human recombinant BACE1 (BACE1 FRET enzyme assay), 0.271 µM on human recombinant BACE2 (BACE2 FRET enzyme assay), 22.6 µM in assay [1] (BACE1 cell-based assay) and 2810 µM on Recombinant Cat D (Cathepsin D FRET enzyme assay).
With `COc1cnc2c(Nc3ccc(F)c([C@@]4(CF)N=C(N)S[C@H]5CC54)c3)ncnc2c1` (stereo in doubt) [Example 88, N-(3-((1S,5S,6S)-3-amino-5-(fluoromethyl)-2-thia-4-azabicyclo[4.1.0]hept-3-en-5-yl)-4-fluorophenyl)-7-methoxypyrido[3,2-d]pyrimidin-4-amine], the IC50 at human recombinant BACE1 (BACE1 FRET enzyme assay) is 0.0416 µM; at human recombinant BACE2 (BACE2 FRET enzyme assay) it was 0.137 µM; in assay [1] (BACE1 cell-based assay), 0.0264 µM; on Recombinant Cat D (Cathepsin D FRET enzyme assay), greater than 400 µM.
On to `Cc1cc(C#N)cnc1C(=O)Nc1cc(F)c(F)c([C@@]2(C)N=C(N)S[C@H]3C[C@H]32)c1` [Example 19, N-(3-((1S,5S,6S)-3-amino-5-methyl-2-thia-4-azabicyclo[4.1.0]hept-3-en-5-yl)-4,5-difluorophenyl)-5-cyano-3-methyl-2-pyridinecarboxamide], for which the values for the IC50 (at human recombinant BACE1 (BACE1 FRET enzyme assay); in assay [1] (BACE1 cell-based assay); on Recombinant Cat D (Cathepsin D FRET enzyme assay)) were 0.00545 µM, 0.00431 µM and 669 µM, respectively.
`NC1=N[C@](CF)(c2cc(Nc3ncnc4cc(Cl)cnc34)cc(F)c2F)[C@@H]2C[C@@H]2S1` [Example 22, (1S,5S,6S)-5-(5-((7-Chloropyrido[3,2-d]pyrimidin-4-yl)amino)-2,3-difluorophenyl)-5-(fluoromethyl)-2-thia-4-azabicyclo[4.1.0]hept-3-en-3-amine]: the half-maximal inhibitory concentration (IC50) on human recombinant BACE1 (BACE1 FRET enzyme assay) was found to be 0.0149 µM; in assay [1] (BACE1 cell-based assay), 0.0533 µM; at Recombinant Cat D (Cathepsin D FRET enzyme assay), 331 µM.
For `COC[C@]12C[C@H]1[C@@](C)(c1cc(Nc3nccc4cc(Cl)cnc34)cc(F)c1F)N=C(N)S2` [Example 24, N-(3-((1S,5S,6S)-3-amino-1-(methoxymethyl)-5-methyl-2-thia-4-azabicyclo[4.1.0]hept-3-en-5-yl)-4,5-difluorophenyl)-3-chloro-1,7-naphthyridin-8-amine], in that order: 0.00188 µM, 0.0191 µM and 189 µM.
For `CCOC(=O)[C@]12C[C@H]1[C@@](C)(c1cc(Nc3nccc4cc(Cl)cnc34)cc(F)c1F)N=C(N)S2` [Example 25, (1S,5S,6S)-ethyl 3-amino-5-(5-((3-chloro-1,7-naphthyridin-8-yl)amino)-2,3-difluorophenyl)-5-methyl-2-thia-4-azabicyclo[4.1.0]hept-3-ene-1-carboxylate], in that order: 0.0025 µM, 0.571 µM and 48.7 µM.
Take `N#Cc1cnc2c(Nc3cc(F)c(F)c([C@@]4(CF)N=C(N)S[C@@H]5C[C@@H]54)c3)nccc2c1` [Example 27, 8-((3-((1R,5S,6R)-3-amino-5-(fluoromethyl)-2-thia-4-azabicyclo[4.1.0]hept-3-en-5-yl)-4,5-difluorophenyl)amino)-1,7-naphthyridine-3-carbonitrile]: the half-maximal inhibitory concentration (IC50) is 0.0235 µM on human recombinant BACE1 (BACE1 FRET enzyme assay), 0.013 µM in assay [1] (BACE1 cell-based assay) and 33.5 µM on Recombinant Cat D (Cathepsin D FRET enzyme assay).
For `C#CCCOc1cnc(C(=O)Nc2ccc(F)c([C@@]3(C)N=C(N)S[C@@]4(COC)C[C@H]43)c2)cn1` [Example 1048, N-(3-((1S,5S,6S)-3-amino-1-(methoxymethyl)-5-methyl-2-thia-4-azabicyclo[4.1.0]hept-3-en-5-yl)-4-fluorophenyl)-5-(3-butyn-1-yloxy)-2-pyrazinecarboxamide], the IC50 came to 0.0078 µM on human recombinant BACE1, 0.152 µM at human recombinant BACE2 and 0.0095 µM in assay [1].
